Laboratory results: patent EP0145493A2, “11-Difluoromethyl and 11-fluoromethylene steroids” (THE UPJOHN COMPANY, priority 1983, dated 1985)

Biological target: T1, progesterone receptor (Oryctolagus cuniculus, UniProt P06186)
T1 construct: 'Rabbit, progesterone = 100%; from tissue; host or cells: Rabbit; From own knowledge, the cited Philibert procedure uses uterine cytosol
T1 sequence (P06186 1-930): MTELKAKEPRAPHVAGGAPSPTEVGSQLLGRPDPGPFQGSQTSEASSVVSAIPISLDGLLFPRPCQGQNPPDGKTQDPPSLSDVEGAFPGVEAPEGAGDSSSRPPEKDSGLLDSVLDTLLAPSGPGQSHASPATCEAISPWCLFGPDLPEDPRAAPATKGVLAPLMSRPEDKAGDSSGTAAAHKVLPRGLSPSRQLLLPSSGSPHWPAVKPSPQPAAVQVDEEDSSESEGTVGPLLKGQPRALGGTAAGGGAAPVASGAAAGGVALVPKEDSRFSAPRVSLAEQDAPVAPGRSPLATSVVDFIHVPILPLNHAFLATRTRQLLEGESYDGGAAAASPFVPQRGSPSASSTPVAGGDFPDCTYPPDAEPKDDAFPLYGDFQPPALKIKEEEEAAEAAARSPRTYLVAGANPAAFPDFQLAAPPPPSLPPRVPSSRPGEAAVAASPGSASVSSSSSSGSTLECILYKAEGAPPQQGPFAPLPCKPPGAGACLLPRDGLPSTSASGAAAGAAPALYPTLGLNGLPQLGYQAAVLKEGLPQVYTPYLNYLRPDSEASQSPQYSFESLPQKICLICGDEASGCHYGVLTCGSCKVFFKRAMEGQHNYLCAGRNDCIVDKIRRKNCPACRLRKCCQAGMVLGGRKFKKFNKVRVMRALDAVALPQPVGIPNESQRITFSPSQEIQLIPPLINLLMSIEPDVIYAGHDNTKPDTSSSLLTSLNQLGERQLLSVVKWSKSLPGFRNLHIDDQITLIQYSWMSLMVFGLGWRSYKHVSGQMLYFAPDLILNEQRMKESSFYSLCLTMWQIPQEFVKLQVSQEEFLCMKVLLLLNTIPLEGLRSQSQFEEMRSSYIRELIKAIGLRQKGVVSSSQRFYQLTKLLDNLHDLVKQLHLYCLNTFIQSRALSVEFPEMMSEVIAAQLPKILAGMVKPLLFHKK
Assay: progesterone receptor relative binding affinity (procedure of Philibert et al.)
Conditions: Rabbit, progesterone = 100%
Text: Biological information in the form of progesterone receptor relative binding affinity data determined according to the procedure of D. Philibert et al, Endocrinology 101, 1850 (1977) set forth in TABLE 1 discloses the 11β-difluoromethyl and (E)-11-fluoromethylene steroids to be useful as progestins.
'Rabbit, progesterone = 100%

Compared with `CC#C[C@]1(O)CC[C@H]2[C@H]3[C@H]([C@@H](C(F)F)C[C@@]21C)[C@H]1CCC(=O)C=C1C[C@H]3C` [11β-Difluoromethyl-17β-hydroxy-7α-methyl-17α-propynylestr-4-en-3-one], `C#C[C@]1(O)CC[C@H]2[C@H]3[C@H]([C@@H](C(F)F)C[C@@]21C)[C@H]1CCC(=O)C=C1C[C@H]3C` [17α-Ethynyl-11β-difluoromethyl-17β-hydroxy-7α-methylestr-4-en-3-one] is higher in “Relative Binding Affinity' (%)” value: 41% for the first, 63% for the second.

Compared with `CC#C[C@]1(O)CC[C@H]2[C@@H]3CCC4C=CCC[C@@H]4[C@H]3[C@@H](C(F)F)C[C@@]21C` (stereo partly drawn) [11β-Difluoromethyl-17β-hydroxy-17α-propynylestr-3-ene], `CC#C[C@]1(O)CC[C@H]2[C@@H]3CCC4=CCCC[C@@H]4[C@H]3[C@@H](C(F)F)C[C@@]21C` [11β-Difluoromethyl-17β-hydroxy-17α-propynylestr-4-ene] is higher in “Relative Binding Affinity' (%)” value: 2% for the first, 3% for the second.

First: CC#CC1(OC(C)=O)CCC2C3CCC4=CC(=O)CCC4C3C(C(F)F)CC21C (stereo not drawn) [11β-Difluoromethyl-17β-hydroxy-17α-propynylestr-4-en-3-one 17-acetate]
Second: C#CC1(OC(C)=O)CCC2C3CCC4=CC(=O)CCC4C3C(C(F)F)CC21C (stereo not drawn) [17α-Ethynyl-11β-difluoromethyl-17β-hydroxyestr-4-en-3-one 17-acetate]
The “Relative Binding Affinity' (%)” value of the first is lower: 49% for the first, 50% for the second.

Compared with `CC#CC1(OC)CCC2C3CCC4=CC(=O)CCC4C3C(C(F)F)CC21C` (stereo not drawn) [11β-Difluoromethyl-17β-hydroxy-17α-propynylestr-4-en-3-one 17-methyl ether], `C#CC1(OC)CCC2C3CCC4=CC(=O)CCC4C3C(C(F)F)CC21C` (stereo not drawn) [17α-Ethynyl-11β-difluoromethyl-17β-hydroxyestr-4-en-3-one 17-methyl ether] is higher in “Relative Binding Affinity' (%)” value: 90% for the first, 145% for the second.

First: CC#C[C@]1(O)CC[C@H]2[C@@H]3CCC4=CC(=O)CC[C@@H]4[C@H]3[C@@H](C(F)F)C[C@@]21C [11β-Difluoromethyl-17β-hydroxy-17α-propynylestr-4-en-3-one]
Second: CC#C[C@]1(O)CC[C@H]2[C@@H]3CCC4=CC(=O)CC[C@@H]4[C@H]3/C(=C/F)C[C@@]21C [(E)-11-fluoromethylene-17β-hydroxy-17α-propynylestr-4-ene-3-one]
The “Relative Binding Affinity' (%)” value of the first is higher: 68% for the first, 18% for the second.

Going from `CO[C@H]1CC[C@H]2[C@@H]3CCC4=CC(=O)CC[C@@H]4[C@H]3[C@@H](C(F)F)C[C@]12C` [11β-Difluoromethyl-17β-hydroxyestr-4-en-3-one 17-methyl ether] to `C[C@]12C[C@H](C(F)F)[C@H]3[C@@H](CCC4=CC(=O)CC[C@@H]43)[C@@H]1CC[C@@H]2O` [11β-Difluoromethyl-17β-hydroxyestr-4-en-3-one], the “Relative Binding Affinity' (%)” value falls from 66% to 13%.

Going from `C#C[C@]1(O)CC[C@H]2[C@@H]3CCC4=CC(=O)CC[C@@H]4[C@H]3/C(=C/F)C[C@@]21CC` [13β-Ethyl-17α-ethynyl-(E)-11-fluoromethylene-17β-hydroxygon-4-en-3-one] to `CC#C[C@]1(O)CC[C@H]2[C@@H]3CCC4=CC(=O)CC[C@@H]4[C@H]3/C(=C/F)C[C@@]21CC` [13β-Ethyl-(E)-11-fluoromethylene-17β-hydroxy-17α-propynylgon-4-en-3-one], the “Relative Binding Affinity' (%)” value falls from 100% to 63%.

First: CC#C[C@]1(O)CC[C@H]2[C@@H]3CCC4=CC(=O)CC[C@@H]4[C@H]3/C(=C\F)C[C@@]21CC [13β-Ethyl-(Z)-11-fluoromethylene-17β-hydroxy-17α-propynylgon-4-en-3-one]
Second: CC#C[C@]1(O)CC[C@H]2[C@@H]3CCC4=CC(=O)CC[C@@H]4[C@H]3/C(=C\F)C[C@@]21C [(Z)-11-Fluoromethylene-17β-hydroxy-17-propynylestr-4-en-3-one]
The “Relative Binding Affinity' (%)” value of the first is lower: 149% for the first, 150% for the second.

Compared with `C#CC1(O)CCC2C3CCC4=CC5(CCC4C3C(C(F)F)CC21C)SCCS5` (stereo not drawn) [17α-Ethynyl-11β-difluoromethyl-17β-hydroxyestr-4-ene-3-one 3-ethanedithiol ketal], `C#C[C@]1(O)CC[C@H]2[C@@H]3CCC4=CCCC[C@@H]4[C@H]3[C@@H](C(F)F)C[C@@]21C` [17α-Ethynyl-11β-difluoromethyl-17β-hydroxyestr-4-ene] is lower in “Relative Binding Affinity' (%)” value: 92% for the first, 2% for the second.

Compared with `C#C[C@]1(O)CC[C@H]2[C@H]3[C@H](/C(=C/F)C[C@@]21C)[C@H]1CCC(=O)C=C1C[C@H]3C` [17α-Ethynyl-(E)-11-fluoromethylene-17β-hydroxy-7α-methylestr-4-en-3-one], `CC#C[C@]1(O)CC[C@H]2[C@H]3[C@H](/C(=C/F)C[C@@]21C)[C@H]1CCC(=O)C=C1C[C@H]3C` [(E)-11-Fluoromethylene-17β-hydroxy-7α-methyl-17α-propynylestr-4-en-3-one] is higher in “Relative Binding Affinity' (%)” value: 34% for the first, 58% for the second.

Going from `C#C[C@]1(O)CC[C@H]2[C@@H]3CCC4=CC(=O)CC[C@@H]4[C@H]3/C(=C/F)C[C@@]21C` [17α-Ethynyl-(E)-11-fluoromethylene-17β-hydroxyestr-4-en-3-one] to `C#C[C@]1(O)CC[C@H]2[C@@H]3CCC4=CC(=O)CC[C@@H]4[C@H]3/C(=C\F)C[C@@]21C` [17α-Ethynyl-(Z)-11-fluoromethylene-17β-hydroxyestr-4-en-3-one], the “Relative Binding Affinity' (%)” value rises from 74% to 149%.

`CC#CC1(OC)CCC2C3CCC4=CC(=O)CCC4C3C(=CF)CC21C` (stereo not drawn) [(E)-11-Fluoromethylene-17β-hydroxy-17α-propynylestr-4-en-3-one 17-methyl ether] was tested, and the “Relative Binding Affinity' (%)” value was 71%.
